# Test results as given in ChEMBL document CHEMBL3832036, “Goodman and Gilman Ed. 12 | The Pharmaceutical Basis of Therapeutics| Table AII-I: Pharmacokinetic Data” (2011).
# Columns and labels:
# Homo sapiens [1] = test: Pharmacokinetic parameters for diffferent drugs or their active metabolite, following single oral or intravenous (IV) administration to subjects of different health conditions.; type: ADME, organism-based; design: dose 50 mg, dose 10 mg, route oral; conditions: in vivo
# Homo sapiens [2] = test: Pharmacokinetic parameters for different drugs, or their active metabolite following multiple oral or intravenous administration to subjects of varying health conditions.; type: ADME, organism-based; design: dose 30 mg, dose 135 mg, route oral; conditions: in vivo
# [3] = po, dosed compound id 66, dosed compound name CHLORTHALIDONE, regimen Single dose, tissue Plasma
# [4] = iv, dosed compound id 67, dosed compound name AZATHIOPRINE, regimen Single dose, tissue Plasma
# [5] = po, dosed compound id 69, dosed compound name IRBESARTAN, gender male, regimen Single dose, tissue Plasma
# [6] = po, dose 10 mg, dosed compound id 63, dosed compound name BACLOFEN, gender male, regimen Single dose, tissue Plasma
# [7] = po, dosed compound id 63, dosed compound name BACLOFEN, gender male, regimen Single dose, tissue Plasma
smiles,measurement,setting,value
NS(=O)(=O)c1cc(C2(O)NC(=O)c3ccccc32)ccc1Cl (configuration not stated) [CHLORTHALIDONE],Excretion,"Homo sapiens [1]; po, at 50 mg, dosed compound id 66, dosed compound name CHLORTHALIDONE, regimen Single dose, tissue Urine",65%
same,Tmax,"Homo sapiens [1]; po, dose 50 mg, dosed compound id 66, dosed compound name CHLORTHALIDONE, regimen Single dose, tissue Plasma",13.8 h
same,t1/2,"Homo sapiens [1]; po, dosed compound id 66, dosed compound name CHLORTHALIDONE, regimen Single dose, tissue Blood",47 h
same,CL,Homo sapiens [1]; [3],0.04 mL/min/kg
same,Cmax,Homo sapiens [1]; [3],3700 ng/mL
same,F,Homo sapiens [1]; [3],64%
same,Vd,Homo sapiens [1]; [3],0.14 L/kg
Cn1cnc([N+](=O)[O-])c1Sc1ncnc2nc[nH]c12 [AZATHIOPRINE],CL,Homo sapiens [1]; [4],57 mL/min/kg
same,Vd,Homo sapiens [1]; [4],0.81 L/kg
same,t1/2,Homo sapiens [1]; [4],0.16 h
Sc1ncnc2nc[nH]c12 [MERCAPTOPURINE ANHYDROUS],F,"Homo sapiens [1]; po, dosed compound id 621, dosed compound name AZATHIOPRINE, regimen Single dose, tissue Plasma",60%
same,Tmax,"Homo sapiens [2]; dose 135 mg, dosed compound id 621, dosed compound name AZATHIOPRINE, regimen Once daily, route oral, tissue Plasma",1 to 2 h
same,Cmax,"Homo sapiens [2]; dosed compound id 621, dosed compound name AZATHIOPRINE, regimen Once daily, tissue Plasma",20 to 90 ng/mL
C[C@]12C=CC(=O)C=C1CC[C@@H]1[C@@H]2[C@@H](O)C[C@@]2(C)[C@H]1CC[C@]2(O)C(=O)CO [PREDNISOLONE],CL,Homo sapiens [1]; po,1 mL/min/kg
same,Excretion,Homo sapiens [1]; po,26%
same,Vd,Homo sapiens [1]; po,0.42 L/kg
same,t1/2,Homo sapiens [1]; po,2.2 h
same,Cmax,Homo sapiens [2],458 ng/mL
same,Tmax,Homo sapiens [2],1.5 h
CCCCC1=NC2(CCCC2)C(=O)N1Cc1ccc(-c2ccccc2-c2nnn[nH]2)cc1 [IRBESARTAN],Tmax,"Homo sapiens [1]; po, dose 50 mg, dosed compound id 69, dosed compound name IRBESARTAN, gender male, regimen Single dose, tissue Plasma",1.2 h
same,CL,Homo sapiens [1]; [5],2.12 mL/min/kg
same,Cmax,Homo sapiens [1]; [5],1300 ng/mL
same,Vd,Homo sapiens [1]; [5],2.9 L/kg
same,bioavailability,Homo sapiens [1]; [5],60 to 80%
same,t1/2,Homo sapiens [1]; [5],13 h
same,Excretion,"Homo sapiens [1]; po, dosed compound id 69, dosed compound name IRBESARTAN, gender male, regimen Single dose, tissue Urine",2.2%
NCC(CC(=O)O)c1ccc(Cl)cc1 (configuration not stated) [BACLOFEN],Vd,"Homo sapiens [1]; other, dosed compound id 63, dosed compound name BACLOFEN, gender male, regimen Single dose, route intestinal infusion, tissue Plasma",0.81 L/kg
same,CL,"Homo sapiens [1]; other, dosed compound id 63, dosed compound name BACLOFEN, gender male, regimen Single dose, route intestinal infusion, tissue Urine",2.72 mL/min/kg
same,Tmax,Homo sapiens [1]; [6],1 h
same,t1/2,Homo sapiens [1]; [6],3.75 h
same,Cmax,Homo sapiens [1]; [7],160 ng/mL
same,F,Homo sapiens [1]; [7],70%
